“Also recorded” adds a separate entry of the source.

The subject of data set [1] is MEF cells from Ercc1−/− mice. The data set can be described thus: Senescence, DNA damage, apoptosis and proliferation in Ercc1−/− MEF cells under oxidative stress. It is filed as cell-based, mouse. As to conditions: for γ-H2AX immunostaining: 1 μM, 48 hours; for γ-H2AX immunostaining / level of p16: 20% oxygen; for level of p16: 1 uM, 48 hrs. The procedure: Graphs showing weight over time of treated, untreated and control animals are shown in FIG. 36A-B. To assess the impact of XJB-5-131 at a cellular level, a number of experiments were carried out using mouse embryonic fibroblasts (“MEF”) cells harvested from Ercc1^−/− mouse embryos.
To test the protective activity of JP4-039, cultures of primary MEFs were prepared from Ercc1^−/− mouse embryos and grown under 20% oxygen (ambient air), which creates oxidative stress in these cells that are hypersensitive to reactive oxygen species. The cells were then either treated with a concentration of 1 uM XJB-5-131, JP4-039, JED-E71-37 or JED-E71-58, or left untreated (media), and then after 48 hrs the level of p16, a marker of irreversible cellular senescence, was measured by immunofluorescence staining.
To evaluate the protective activities of JED-E71-37 and JED-E71-58, primary MEF cells were prepared from Ercc1^−/− mice and grown under conditions of oxidative stress (ambient air, 20% oxygen). The cells were then either untreated or treated with 1 μM JED-E71-37 or JED-E71-58 for a period of 48 hours.
Next, the abilities of these two agents, as well as XJB-5-131 and JP4-039, each at a concentration of 1 μM, were tested for their ability to prevent oxidation-induced DNA double-strand breaks in cell cultures prepared, and oxidatively stressed, as in the preceding paragraph. Treated as well as untreated cells were, after 48 hours of treatment, immunostained for γ-H2AX, a marker of DNA double-strand breaks as well as cellular senescence.

In another data set the test system is 32D cl 3 cells. The data set can be described thus: Clonogenic radiation survival curves of 32D cl 3 cells (PLDR study). It is filed as cell-based, mouse. Also noted: key to D0: D0 in Gy, from single-hit multitarget model. The procedure: 32D cl 3 cells were resuspended at 1×10^5 cells/mL in 10×100-mm tubes and divided into three groups: radiation only, post-irradiation treatment with 10 μM JP4-039, and post-irradiation treatment with 10 μM TEMPO. Cells were irradiated to doses ranging from 0 to 8 Gy and were plated immediately after irradiation.
32D cl 3 cells were resuspended at 5×10^5 cells/mL in 10×100-mm tubes and divided into three groups: radiation only, post-irradiation treatment with 10 μM JP4-039, and post-irradiation treatment with 10 μM TEMPO. Cells were irradiated to doses ranging from 0 to 8 Gy and were then incubated in exponentially growing colonies (flasks) for 24, 48 and 72 h in a high-humidity incubator at 37° C. with 95% air/5% CO2.
32D cl 3 cells were resuspended at 5×10^5 cells/mL in 10×100-mm tubes. Cells were irradiated to doses ranging from 0 to 8 Gy and were then centrifuged at 1500 RPM for 10 minutes and incubated in vertical tubes held tight in pellets with a total of 5×10^5 cells/pellet for 24, 48 and 72 h in a high-humidity incubator at 37° C. with 95% air/5% CO2.
Cells incubated under either logarithmic or PLDR conditions were resuspended at 24, 48 and 72 h after irradiation, and cell viability was assessed using an automated cell viability counter (Beckman Coulter, Fullerton, Calif.). Subsequently, at 24, 48, 72 h, cells in pellets and flasks were resuspended and treated with 10 μM JP4-039, 10 μM TEMPO, or no treatment and were plated in triplicate in semisolid methylcellulose-containing medium at viable cell concentrations ranging from 500-40,000 cells/mL. Cells were incubated in a high-humidity incubator at 37° C. with 95% air/5% CO2 for 7 d and colonies of greater than 50 cells were scored according to published methods (Epperly M W, Gretton J E, Sikora C A, Jefferson M, Bernarding M, Nie S, et al.: Mitochondrial localization of superoxide, dismutase is required for decreasing radiation-induced cellular damage. Radiat Res. 160: 568-578, 2003).
Data from radiation survival curves were analyzed using the linear-quadratic and single-hit, multitarget models (Epperly M, et al., Prevention of late effects of irradiation lung damage by manganese superoxide dismutase gene therapy. Gene Ther. 5: 196-208, 1998). Results are presented as the mean±standard error of the mean from at least three measurements. Student's t test and two-way ANOVA were used to compare means of different groups where appropriate.

Data set [2] deals with 32D cl 3 mouse hematopoietic progenitor cell line. The data set can be described thus: Irradiation survival curves of 32D cl 3 cells with JP4-039 (Example 10). The format is cell-based. The settings on record: 10 μM, control 1.29. The procedure: Irradiation survival curves were performed on cells from the 32D cl 3 mouse hematopoietic progenitor cell line, incubated in 10 μM JP4-039 for 1 hour before irradiation, or plated in methycellulose containing 10 μM JP4-030 after irradiation. Cells were irradiated from 0 to 8 Gy, plated in 0.8% methycellulose containing media, and incubated for 7 days at 37° C. Colonies of greater than 50 cells were counted and data analyzed by linear quadratic and single-hit, multi-target models.

A further data set concerns Ercc1−/Δ mice. The data set can be described thus: Signs of aging in progeroid Ercc1−/Δ mice. The format is in vivo, mouse. The settings on record: 2 mg/kg ip three times per week. The procedure: To assess the effectiveness of XJB-5-131 in inhibiting degeneration and/or signs of aging, the compound was administered, over an 18-21 week period, progeroid
Ercc1^−/Δ mice, at a dose of 2 mg/kg in sunflower oil carrier (to promote solubility) administered intraperitoneally three times per week (FIG. 32). Sunflower seed oil was administered to twin Ercc1^−/Δ mice according to the same schedule as a control. The treated and control mice were monitored twice a week for weight and symptom/sign development.
FIG. 33 presents a summary table showing the results of the treatment with XJB-5-131 (“XJB” in this Figure), relative to control (sunflower seed oil) after treatment from 5 wks of life until death. The numbers indicate the average age at onset of each age-related symptom for mice treated with XJB-5-131 or vehicle only (oil) (n=5 mice per group). […] Of note, all of the signs of neurodegeneration, including dystonia, trembling, ataxia, wasting and urinary incontinence were delayed in the treated animals, providing strong evidence that XJB-5-131 protects neurons against degenerative changes caused by oxidative stress.
To assess the ability of XJB-5-131 to inhibit deterioration of intervertebral discs (an index of degenerative disease of the vertebra), the level of glycosaminoglycan in the discs in treated and control mice were measured, and the results are shown in FIG. 34. The intervertebral discs of treated mice contained approximately 30 percent more glycosaminoglycan relative to control mice, indicating inhibition of disc degeneration.

The mark [3] stands for this setting: 0 hours, 10 μM post-irradiation.

For the molecule `CC(C)C[C@@H](/C=C/CC(=O)NC1CC(C)(C)N([O])C(C)(C)C1)NC(=O)OC(C)(C)C` [JP4-039, TEMPO-4-yl-(S,E)-5-(tert-butoxycarbonylamino)-7-methyloct-3-enamide], the γ-H2AX immunostaining result in data set [1] is recorded as “also effective”. For the same molecule, the “level of p16” value in data set [1] is “much lower”. Further, the D0 was 0.91 ± 0.11 in the data set on 32D cl 3 cells (setting [3]); 1.22 ± 0.16 in the data set with 32D cl 3 cells (24 hours (Flask), 10 μM); 1.12 ± 0.27 in the data set with 32D cl 3 cells (24 hours (Pellet), 10 μM). Further, the Ñ in the data set on 32D cl 3 cells (setting [3]) is given as 37.43±7.50; in the data set on 32D cl 3 cells (24 hours (Flask), 10 μM) it was 10.35±0.33; in the data set with 32D cl 3 cells (24 hours (Pellet), 10 μM), 18.49±3.90. Further, the radiation mitigation result in the data set with 32D cl 3 cells (48 or 72 h after irradiation) is on record as “no statistically significant radiation mitigation”. The “ñ (shoulder on the survival curve)” value in data set [2] (drug added after irradiation) is reported as 4.55±0.47; in data set [2] (drug added before irradiation), 5.25±0.84.

On to `CC(C)C[C@@H](/C=C/[C@H](Cc1ccccc1)C(=O)N1CCC[C@H]1C(=O)N[C@H](C(=O)N[C@@H](CCCNC(=O)OCc1ccccc1)C(=O)NC1CC(C)(C)N([O])C(C)(C)C1)C(C)C)NC(=O)OC(C)(C)C` [XJB-5-131], for which, in data set [1] (500 nM), the SA-β galactosidase staining result is recorded as “notably less”, the amount of apoptosis result was “did not reduce the amount of apoptosis” and the “number of γH2AX foci” value is “reduce the number of γH2AX foci”. In data set [1], the γ-H2AX immunostaining result was “less effective” and the “level of p16” value is “less effective”. In addition, in the data set with Ercc1−/Δ mice, the body weight entry is recorded as “did not lose weight; also recorded: does not cause weight loss”; the “glycosaminoglycan in intervertebral discs relative to control mice” value is given as “approximately 30 percent more”; the “onset of signs of neurodegeneration (dystonia, trembling, ataxia, wasting, urinary incontinence)” value is given as “delayed”; the overall aging score result is “significantly improved”.
